Results: patent US11767302B2, “Reagents and methods for tetrazine synthesis” (University of Delaware, priority 2020, dated 2023)
“And” between values parts separate entries of the source, which are not always exact repeats. Identical values can stand only once.

Legend:
[1] = Stopped-flow kinetic analysis of tetrazines with eq-5-hydroxy-trans-cyclooctene in PBS buffer at 25° C.; conditions: for k2, second order rate constant / kobs: PBS pH 7.4, 25° C.; for k2, second order rate constant: linear regression of kobs; for kobs: 0.025 mM tetrazine; for krel: relative to 5b, PBS, 25° C.
Experimental: Solutions (5 mL) of tetrazines 5b, 6c, 5l, 6a and 4f (0.050 mM) were prepared in PBS buffer (pH 7.4). Solutions (10 mL) of eq-5-hydroxy-trans-cyclooctene (0.50, 0.60, 0.70, 0.80 mM) were prepared in PBS buffer (pH 7.4). The reactions between tetrazines and trans-cyclooctene were measured under pseudo-first order conditions using SX 18MV-R stopped-flow spectrophotometer (Applied Photophysics Ltd.). Each solution of tetrazine and trans-cyclooctene were injected in equal volumes via 3 mL syringes into the stopped-flow instrument at 25° C., resulting in final concentration of 0.025 mM of tetrazines and 0.25, 0.30, 0.35, 0.40 mM trans-cyclooctene. The reaction was monitored by the decay of absorbance associated with the tetrazines (5b at 263 nm, 6c at 268 nm, 5l at 274 nm, 6a at 296 nm, 4f at 266 nm). Reaction were repeated in triplicate. With Prism software, an observed rate constant, kobs, was obtained by nonlinear regression. Second order rate constants, k2, were calculated by linear regression between kobs and final concentration of trans-cyclooctene.

[2] = Tetrazine stability in PBS buffer in ambient light at 25° C.; type: physicochemical; conditions: PBS buffer pH 7.4, ambient light, day 0-5
Experimental: Solutions (3 mL) of tetrazine 5b, 5l and 6c (400 μM) were prepared in PBS buffer (pH 7.4) in vials and stored in ambient light at 25° C. Tetrazine concentrations were determined by recording the absorbance at 518 nm (6c) and 520 nm (5b and 5l) in cuvettes in day 0, 1, 3 and 5. A solution of 6a (50 μM) was prepared in PBS buffer (pH 7.4) in vials and stored in ambient light at room temperature. Tetrazine concentration was determined by recording the absorbance at 520 nm in cuvettes at day 0, 1, 3 and 5.

[3] = Experimental log P; type: physicochemical
[4] = target: T1, human MAGL enzyme (Homo sapiens, UniProt Q99685); test: MAGL in vitro activity assay (7-HCA substrate, fluorescence); type: biochemical; conditions: human MAGL pre-treated 30 min at room temperature, 7-HCA substrate 1 h; read-out: IC50, inhibition of MAGL activity in vitro
T1 sequence (Q99685 1-303): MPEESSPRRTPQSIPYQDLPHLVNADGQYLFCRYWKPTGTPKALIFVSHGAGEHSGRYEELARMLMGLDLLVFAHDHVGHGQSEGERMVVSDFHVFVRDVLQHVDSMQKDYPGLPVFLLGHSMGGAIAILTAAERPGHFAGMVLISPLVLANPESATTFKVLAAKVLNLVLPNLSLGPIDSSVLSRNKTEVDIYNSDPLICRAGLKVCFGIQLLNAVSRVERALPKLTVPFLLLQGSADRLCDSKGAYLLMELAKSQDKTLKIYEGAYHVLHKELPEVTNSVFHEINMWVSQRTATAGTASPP
Experimental: MAGL in vitro activity assay. The MAGL in vitro activity assay was performed based on a reported protocol. Briefly, human MAGL enzyme was pre-treated with compounds at room temperature for 30 min, and subsequently incubated with 7-hydroxycoumarinyl arachidonate (7-HCA) as a substrate at room temperature for 1 h. The fluorescence signals were measured on an Envision plate reader (excitation 355 nm, emission 460 nm).

[5] = Stopped-flow kinetic analysis of MAGL tetrazines with eq-5-hydroxy-trans-cyclooctene in MeOH at 25° C.; conditions: for kobs: 0.04 mM tetrazine, 0.40 mM trans-cyclooctene, MeOH; for kobs / krel: 25° C.; for krel: relative to 12, MeOH
Experimental: Solutions (3 mL) of tetrazines 100a, 100b, 100c and 12 (0.080 mM) was prepared in MeOH. Solutions (3 mL) of eq-5-hydroxy-trans-cyclooctene (0.80 mM) were prepared in MeOH. The reactions between tetrazines and trans-cyclooctene were measured under pseudo-first order conditions using SX 18MV-R stopped-flow spectrophotometer (Applied Photophysics Ltd.). Each solution of tetrazine and trans-cyclooctene were injected in equal volumes via 3 mL syringes into the stopped-flow instrument at 25° C., resulting in final concentration of 0.04 mM of tetrazines and 0.40 mM trans-cyclooctene. The reaction was monitored by the decay of absorbance associated with the tetrazines (10a and 10b at 300 nm, 10c at 280 nm). Reaction were repeated in triplicate. With Prism software, an observed rate constant, kobs, was obtained by nonlinear regression.

[6] = target: T2, endogenous MAGL (Homo sapiens, UniProt Q99685); test: Labeling of endogenous MAGL in live cells, gel-based ABPP with TCO-TAMRA; type: cell-based
T2 sequence (Q99685 1-303): T1 sequence (Q99685 1-303)
Experimental: Cell culture and probe treatment. Human brain vascular pericytes were cultured in Dulbecco's Modified Eagle Medium/Nutrient Mixture F-12 (DMEM/F-12) GlutaMAX media supplemented with 5% heat-inactivated fetal bovine serum (HI FBS), 1× pericyte growth supplement (PGS), and 1× penicillin-streptomycin at 37° C. with 5% CO2 in a humidified environment. Probe treatment was performed in duplicates. Cells were plated in 6-well plates and cultured overnight in growth media. Live cells were then treated with 300 nM KML29 as a competitor compound (or DMSO as a control) at 37° C. for 1 h. Cells were subsequently treated with probe 9 (0.3 nM-3.2 μM) at 37° C. for 1 h (cells pre-treated with KML29 were treated with 32 nM of probe 9), after which the cells were washed with fresh growth media. The media were then placed with fresh media containing 2 μM of TCO-TAMRA, and the cells were incubated at 37° C. for 30 min. To quench the reaction, the media were replaced with PBS containing 100 μM tetrazine amine, and the cells were washed with cold PBS and harvested with a scrapper. The suspensions were centrifuged at 10,000×g for 1 min at 37° C., and the cell pellets were lysed in PBS containing 0.25% sodium dodecyl sulfate (SDS) with sonication. The protein concentration was measured with a bicinchoninic acid (BCA) assay kit (Thermo Scientific) and normalized. In-gel fluorescence and data analysis. The proteomes were analyzed with 1.0 mm thick 4-12% bis-tris 15-well protein gels in 2-(N-morpholino)ethanesulfonic acid (MES) buffer. The gels were scanned with a Typhoon FLA 9500 Biomolecular Imager (GE Healthcare) with the TAMRA channel with 532 nm excitation and a 575 nm long pass emission filter. To measure the total protein loading, the gels were treated with ClearPage Instant Blue (CBS Scientific) overnight, and after brief destaining with water, scanned with an Odyssey Imager (Li-COR) at the 700 nm channel. The in-gel fluorescence images were processed with ImageJ software (v1.47, NIH), and the intensities were quantified with Image Studio (v5.2, Li-COR) with background subtraction. The coomassie images were processed and quantified with the Image Studio software with background subtraction. For analysis of the cellular potency, the in-gel fluorescence intensities of the two MAGL bands were averaged, normalized with the total coomassie intensity of the corresponding sample, and fitted with a dose-response equation with Prism v7.02 (GraphPad). […] The media were then placed with fresh media containing 2 μM of TCO-TAMRA, and the cells were incubated at 37° C. for 30 min. […] The protein concentration was measured with a bicinchoninic acid (BCA) assay kit (Thermo Scientific) and normalized. In-gel fluorescence and data analysis. […]

[7] = Stopped-flow kinetics of 9 versus 10 with axial 5-hydroxy-trans-cyclooctene in methanol; conditions: 25° C.; for kobs, average rate constant: 0.05 mM tetrazine, 0.5 mM trans-cyclooctene
Experimental: 0.1 mM solutions (10 mL) in methanol were prepared from stock solutions of 9 (16.3 mg in 632 μL DMF, 50 mM) and 10 (10.0 mg in 422 μL MeOH, 100 mM). A 1.0 mM solution (25 mL) in methanol of axial 5-hydroxy-trans-cyclooctene 11 was also prepared from a stock solution (29.0 mg in 460 μL MeOH, 500 mM). The reaction between tetrazine and a trans-cyclooctene was measured under pseudo-first order conditions using a SX 18MV-R stopped-flow spectrophotometer (Applied Photophysics Ltd.). The 0.1 mM solution of tetrazines 9 or 10 and the 1.0 mM solution of trans-cyclooctene 11 were injected as equal volumes via syringe into the stopped-flow instrument which was held at 25° C., resulting in a final concentration of the tetrazine of 0.05 mM and a final concentration of the trans-cyclooctene of 0.5 mM. The reaction was monitored by the absorbance decay of tetrazine measured at 290 nm. Data points were collected every 0.1 second for 400 seconds and reaction was repeated in triplicate. Prism software was used to obtain the observed rate of each reaction, kobs, which was determined by nonlinear regression analysis resulting in average rate constants of 0.01033 s^−1 for 9 and 0.00975 s^−1 for 10. The relative rate, krel, of 9 versus 10 was thus determined to be 1.06.

In the case of `COC(=O)CCc1nncnn1` [4f, methyl 3-(1,2,4,5-tetrazin-3-yl)propanoate], the “k2, second order rate constant” value [1] is reported as 1591 ± 25.74 M⁻¹ s⁻¹, the kobs ([1]; TCO 0.25 mM) is reported as 0.53 s⁻¹ and the kobs ([1]; TCO 0.30 mM) is reported as 0.61 s⁻¹. It also gave a kobs ([1]; TCO 0.35 mM) of 0.68 s⁻¹, a kobs ([1]; TCO 0.40 mM) of 0.77 s⁻¹ and a krel [1] of 8.0.
For `COC(=O)CCc1nnc(-c2cccc(C#N)c2)nn1` [5i, methyl 3-(6-(3-cyanophenyl)-1,2,4,5-tetrazin-3-yl)propanoate], the “k2, second order rate constant” value [1] was 69.88 ± 4.824 M⁻¹ s⁻¹, the kobs ([1]; TCO 0.25 mM) was 0.21 s⁻¹ and the kobs ([1]; TCO 0.30 mM) was 0.24 s⁻¹. The kobs ([1]; TCO 0.35 mM) was 0.029 s⁻¹, the kobs ([1]; TCO 0.40 mM) was 0.032 s⁻¹ and the krel [1] was 0.35.
With `COC(=O)CCc1nnc(-c2ccoc2)nn1` [5l, methyl 3-(6-(furan-3-yl)-1,2,4,5-tetrazin-3-yl)propanoate] the “times less reactive than 5b” value ([1]; reaction with 5-hydroxyTCO) was 2.9 times, the decomposition per day [2] was 1.7% and the logP [3] was 1.2.
In the case of `C=C(OCC)c1nnc(-c2ccccc2)nn1` [6a, 3-(1-ethoxyvinyl)-6-phenyl-1,2,4,5-tetrazine], the “k2, second order rate constant” value [1] is reported as 2007 ± 101.3 M⁻¹ s⁻¹, the kobs ([1]; TCO 0.25 mM) is reported as 0.52 s⁻¹ and the kobs ([1]; TCO 0.30 mM) is reported as 0.62 s⁻¹. For the same compound, the kobs ([1]; TCO 0.35 mM) was 0.70 s⁻¹, the kobs ([1]; TCO 0.40 mM) was 0.83 s⁻¹ and the krel [1] was 10. For the same compound, the decomposition per day [2] was 0.8%.
Work on `O=C(OC(C(F)(F)F)C(F)(F)F)N1CCC(CNS(=O)(=O)c2ccc(-c3nnc(-c4ccoc4)nn3)cc2)CC1` [100a, 1,1,1,3,3,3-hexafluoropropan-2-yl 4-((4-(6-(furan-3-yl)-1,2,4,5-tetrazin-3-yl)phenylsulfonamido)methyl)piperidine-1-carboxylate] yielded an IC50 [4] of 12 nM, a kobs [5] of 0.003623 s⁻¹ and a krel [5] of 3.
`C=C(OCC)c1nnc(-c2ccc(S(=O)(=O)NCC3CCN(C(=O)OC(C(F)(F)F)C(F)(F)F)CC3)cc2)nn1` [100b, 1,1,1,3,3,3-hexafluoropropan-2-yl 4-((4-(6-(1-ethoxyvinyl)-1,2,4,5-tetrazin-3-yl)phenylsulfonamido)methyl)piperidine-1-carboxylate] showed an IC50 [4] of 46 nM, a kobs [5] of 0.031 s⁻¹ and a krel [5] of 25. The “fold more reactive than 100a” value ([5]; stopped flow kinetics with 5-hydroxyTCO) was 8.6 fold.
With `O=C(OC(C(F)(F)F)C(F)(F)F)N1CCC(C(O)(c2ccc3c(c2)OCO3)c2ccc3c(c2)OCO3)CC1` [KML29, reference compound] the “competition of probe 9 labeling of MAGL” value ([6]; probe 9 32 nM 1 h after pre-treatment with KML29 300 nM 1 h) was “competed”.
In the case of `Cc1nnc(-c2ccc(-n3ccc(C4CCN(C(=O)OC(C(F)(F)F)C(F)(F)F)CC4)n3)cc2)nn1` [compound 9, 1,1,1,3,3,3-hexafluoropropan-2-yl 4-(1-(4-(6-methyl-1,2,4,5-tetrazin-3-yl)phenyl)-1H-pyrazol-3-yl)piperidine-1-carboxylate], the IC50 [4] is reported as 31 nM, the “off-target labeling in live cells” value ([6]; human brain vascular pericytes, in-gel fluorescence, consistent with ABHD6) is reported as “labeled an additional protein at ˜35 kDa” and the IC50 ([6]; human brain vascular pericytes, probe 1 h, then 2 μM TCO-TAMRA 30 min, in-gel fluorescence, read-out: cellular IC50 of MAGL labeling) is reported as 8 nM. For the same compound, the “kobs, average rate constant” value [7] was 0.01033 s⁻¹ and the “krel of 9 versus 10” value [7] was 1.1 and 1.06.
With `Cc1nnc(-c2ccc(CN)cc2)nn1` [compound 10, 3-methyl-6-(4-aminomethyl)tetrazine, reference compound] the “kobs, average rate constant” value [7] was 0.00975 s⁻¹.
